This note sets out measurements from US6432403B1, “Antibodies to polypeptides having prenylcysteine carboxyl methlytransferase activity or inhibiting activity” (New York University, priority 1997, dated 2002).

The nature of data set [1]: Prenylcysteine carboxyl methyltransferase activity of membranes, AFC as substrate. Type of data set: biochemical, human. Conditions: for Relative enzymatic activity: COS cell membranes, Vector Alone = 1; for Increase: relative to COS + Vector. The text has this:
Expression of Recombinant pcCMT: The 3.6-kb full-length HL60 pcCMT cDNA and an 852-bp cDNA fragment comprising the ORF were subcloned into the eukaryotic expression vectors pCDM8 and pcDNA3.1 (Invitrogen, Carlsbad, Calif.). Myc-tagged pcCMT was made by adding a sequence encoding the 10-amino acid epitope of c-Myc recognized by monoclonal antibody 9E10 to the C terminus of pcCMT using patch PCR and subcloning into pcDNA3.1. pcCMT tagged at the C terminus with GFP was generated by subcloning the pcCMT ORF into the expression vector pGFP-N3 (Clontech). For pcCMT enzymatic assays, COS-1 cells were grown in 10-cm dishes and transfected with pcCMT with DEAE-dextran as described (Aruffo et al, 1987). For fluorescence microscopy, exponentially growing COS-1, CHO, and NIH3T3 cells were plated the day prior to transfection at 50-60% confluence and transfected with 2 μg of DNA using LipofectAMINE (Life Technologies, Inc.), Gaithersburg, Md.) according to the manufacturer's instructions.
(§1) Prenylcysteine Carboxyl Methyltransferase Assays: COS-1 cells transfected with HL60 pcCMT or vector alone were harvested at 48 hours with 5 mM EDTA and subjected, in parallel with human neutrophils, to nitrogen cavitation and discontinuous sucrose density centrifugation as described (Philips et al, 1991). Light membranes were assayed for pcCMT activity qualitatively by S-adenosyl-L- [methyl-^3H]methionine labeling (SDS-polyacrylamide gel electrophoresis and flurography) of Rho GTPases partially purified from neutrophil cytosol and quantitatively by carboxyl methylation of N-acetyl-S-trans,trans-farnesyl-L-cysteine (AFC) (heptane partition, alkaline hydrolysis, and measurement of vapor phase [^3H]methanol) as described (Philips et al, 1995)
(§2) To determine whether the HL60 STE14 protein homolog has prenylcysteine carboxyl methyltransferase activity, the cDNA was subcloned into a mammalian expression vector PCDM8 (Invitrogen, San Diego, Calif.) and transiently overexpressed ectopically in COS-1 cells. Membranes prepared from these cells were used as a source of recombinant enzyme. Farnesylated Ras GTPases require detergent for extraction from membranes. Therefore, geranylgeranylated neutrophil cytosolic Rho accessory protein, guanine nucleotide dissociation inhibitor (GDI), were utilized as endogenous substrates in an in vitro assay (FIGS. 5A and 5B). Untransfected COS-1 cell membranes had little pcCMT activity toward Rho proteins compared with that of membranes derived from human neutrophils (FIG. 5A). Transfection with the HL60 cDNA conferred pcCMT activity toward Rho GTPases on COS-1 membranes, and this activity was blocked by the competitive pcCMT inhibitor, AFC, with an ED50 (10 μM) identical to that for endogenous neutrophil pcCMT. Carboxyl methylation of Rac2 and RhoA by HL60 pcCMT-transfected COS-1 cell membranes was enhanced by guanosine 5′-3-O-(thio)triphosphate (GTPγS) (FIG. 5B), similar to the activity observed in neutrophil membranes (Philips et al, 1993). Carboxyl methyltransferase activity was quantitated in membranes of COS-1 cells transfected with HL60 pcCMT using prenylcysteine analogs as defined substrates (Philips et al, 1995). Untransfected COS-1 cell membranes had […] (n=5) of the pcCMT specific activity of neutrophil membranes toward AFC.

The subject of the next data set is Δste14 yeast strain. Put plainly: ste14 complementation, patch mating test. It counts as cell-based, S. cerevisiae. Conditions: cDNA expressed from a plasmid. The method, then:
S. cerevisiae Strains, Growth, and ste14 Complementation: Complete (YEPD), synthetic (SD), and synthetic dropout media were prepared as described previously (Michaelis et al, 1988), except that dropout medium lacked cysteine. All experiments were performed at 30° C. Yeast transformations were carried out by either the lithium acetate method (Ito et al, 1983) or the Elble method (Elble, 1992). The ste14 deletion strains used are SM1188 (MATαΔste14-3:: TRP1 trp1 leu2 ura3 his4 can1) and SM1639 (MATαΔste14-4:: URA3 trp1 leu2 his4 can1) (Sapperstein et al, 1994). Plasmid expression of STE14 protein was accomplished by pSM1237 (CEN URA3 STE14). Human pcCMT was expressed in yeast by subcloning the HL60 pcCMT ORF into the BamHI SalI sites of the yeast expression plasmid pG1 (2μ TRP1) that utilizes a GPD promoter and a PGK transcription terminator and polyadenylation signal (Schena et al, 1991). The resulting construct was designated pG1-hCMT (2μ TRP1 hCMT). Patch mating tests were carried out essentially as described previously (Michaelis et al, 1988). briefly, patches of MATα cells grown on selective media were replica plated onto a lawn of the […], SM1068 (lys1), that had been spread on an SD plate. […]
To determine whether human pcCMT could substitute in vivo for the S. cerevisiae pcCMT, STE14 protein, a complementation analysis was done using mating as a biological readout. […]

Data set [2] deals with T1, human pcCMT (Homo sapiens, UniProt O60725).
T1 construct: The 3.6-kb full-length HL60 pcCMT cDNA and an 852-bp cDNA fragment comprising the ORF were subcloned into the eukaryotic expression vectors; expressed in transfected cells; host or cells: COS-1 cells (pCDM8 vector, DEAE-dextran transfection); light membranes after nitrogen cavitation
T1 sequence (O60725 whole entry, the tested form may be a part): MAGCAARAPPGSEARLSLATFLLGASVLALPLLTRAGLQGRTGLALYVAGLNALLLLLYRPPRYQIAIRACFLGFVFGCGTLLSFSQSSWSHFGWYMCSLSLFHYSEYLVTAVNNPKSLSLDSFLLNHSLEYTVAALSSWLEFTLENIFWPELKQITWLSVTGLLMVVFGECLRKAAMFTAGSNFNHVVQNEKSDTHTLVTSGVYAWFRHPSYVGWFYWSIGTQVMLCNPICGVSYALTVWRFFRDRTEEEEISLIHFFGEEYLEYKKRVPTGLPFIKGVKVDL
Description: Carboxyl methylation of prenylcysteine analogs (AFC, AGGC) as defined substrates by the recombinant enzyme in COS-1 membranes. Type of data set: biochemical. The method, then: as §1, §2
The Michaelis constants of the recombinant enzyme, Km=7 μM for AFC and 0.6 μM for AGGC, were similar to those for the endogenous neutrophil enzyme (Pillinger et al, 1994). Thus, the cDNA described above encodes authentic human myeloid pcCMT.

For data set [3], the target named is T1, human pcCMT. Description: Carboxyl methylation of Rho GTPases by COS-1 cell membranes expressing human pcCMT (S-adenosyl-L-[methyl-3H]methionine labeling, SDS-PAGE, fluorography). It counts as biochemical. The note with it: HL60 pcCMT-transfected COS-1 cell membranes; 10 μM. Here is the method: FIGS. 5A and 5B show the carboxyl methylation of ras-related GTPases by COS-1 cell membranes expressing ectopic human pcCMT. In FIG. 5A, neutrophil cytosol (CS) containing a mixture of Rho family proteins complexed with Rho-GDI (lanes 2, 3, 6, 7, 10, 11) or RhoA-GDI complexes partially purified from CS (lanes 4, 8, 12) were incubated with the methyl donor S-adenosyl-L-[methyl-^3H]methionine and light membranes derived from nitrogen cavitation of human neutrophils (lanes 1-4) or COS-1 cells transiently transfected with either human pcCMT (lanes 5-8) or vector alone (lanes 9-12). In some reactions (lanes 3, 7, 11) a competitive pcCMT inhibitor, AFC, was included. Reaction products were analyzed by SDS-PAGE and fluorography. The position of carboxyl methylated […] is indicated as is the position of protein phosphatase 2a (PP2a) that is methylated on a C-terminal leucine by an enzyme unrelated to pcCMT (Lee et al, 1993). […] Carboxyl methyltransferase activity was quantitated in membranes of COS-1 cells transfected with HL60 pcCMT using prenylcysteine analogs as defined substrates (Philips et al, 1995). […]

Broadly, the Km is the substrate concentration at which the rate is half of its maximum.

As to “pcCMT-FLAG: pcCMT with the 8-amino acid FLAG epitope as C-terminal extension”, the figures for the Relative enzymatic activity in data set [1] (Experiment #2) and in data set [1] (Experiment #3) were 5.45 and 18.5, respectively.

Turning to “COS + pcCMT cDNA: membranes of COS cells transfected with pCDM8 + pcCMT full-length cDNA”, the Activity in data set [1] (Experiment 1) amounted to 62.7 pmol/mg/min; in data set [1] (Experiment 2) it was 17.7 pmol/mg/min; in data set [1] (Experiment 3), 35.3 pmol/mg/min. For the same compound, the Increase in data set [1] (Experiment 1) is given as 12 fold; in data set [1] (Experiment 2) it was 9 fold; in data set [1] (Experiment 3) it was 21 fold.

Consider “PcCMT-Myc: pcCMT with the 10-amino acid c-Myc epitope added at the C terminus”, for which the Relative enzymatic activity in data set [1] (Experiment #1) is reported as 11.1.

For “COS + pcCMT ORF: membranes of COS cells transfected with pCDM8 + pcCMT ORF only”, in data set [1] (Experiment 2), the Activity is 84.6 pmol/mg/min and the Increase was 45 fold. Also, in data set [1] (Experiment 3), the Activity is given as 90.7 pmol/mg/min and the Increase came to 53 fold.

For the compound “HL60 pcCMT: human prenylcysteine carboxyl methyltransferase, 284 amino acid protein of SEQ ID NO:5, ectopically expressed in COS-1 cell membranes”, the Relative enzymatic activity in data set [1] (Experiment #1) is 14.1; in data set [1] (Experiment #2), 5.4; in data set [1] (Experiment #3) it was 19.6. The “Specific AFC carboxyl methyltransferase activity” value in data set [1] (transfected COS-1 membranes, n=5, p<0.0005) is 74.5 ± 6.8 pmol/mg/min. Besides, in data set [1] (transfection of COS-1 cells), the “Increase in specific AFC carboxyl methyltransferase activity” value was 18-53 fold. In addition, the “Restoration of mating phenotype” value in the data set on Δste14 yeast strain was “partially restored the mating phenotype”.

On to `CC(=O)N[C@@H](CSC/C=C(\C)CC/C=C(\C)CC/C=C(\C)CCC=C(C)C)C(=O)O` (stereo in doubt) [AGGC, N-acetyl-S-all-trans-geranylgeranyl-L-cysteine], for which the “Increase in carboxyl methylation of the substrate on pcCMT transfection” value on human pcCMT [2] (n=2) amounted to 18 fold. Further, the Michaelis-Menten constant (Km) on human pcCMT [2] (recombinant enzyme, read-out: Michaelis constant Km) was 0.6 µM.

Consider `Nc1nc2c(ncn2[C@@H]2O[C@H](COP(=O)(O)OP(=O)(O)OP(O)(O)=S)[C@@H](O)[C@H]2O)c(=O)[nH]1` [GTPγS, guanosine 5′-3-O-(thio)triphosphate], for which the “Effect on carboxyl methylation of Rac2 and RhoA” value at human pcCMT [3] is reported as “enhanced”.
